Columns and labels:
U2OS [1] = test: drug sensitivity score (DSS) for viability; higher = more toxic; extreme values may be limits of the assay; settings: 72 h
Caco-2 [2] = test: as above; settings: 72 h
Calu-3 [3] = test: as above; settings: 72 h
HepG2 [4] = test: as above; settings: 72 h
Vero E6 [5] = test: as above; settings: 72 h
[6] = tested on: A549-ACE2 infected with SARS-CoV-2; test: cell count relative to DMSO; higher = less toxic; settings: 24 h
U2OS [7] = test: cell viability relative to DMSO; higher = less toxic; settings: 72 h
Caco-2 [8] = test: as above; settings: 72 h
Calu-3 [9] = test: as above; settings: 72 h
HepG2 [10] = test: as above; settings: 72 h
Vero E6 [11] = test: as above; settings: 72 h
U2OS [12] = test: relative viability EC50 (midpoint between 100% and the lowest measured viability); higher = less toxic; settings: 72 h
Caco-2 [13] = test: as above; settings: 72 h
Calu-3 [14] = test: as above; settings: 72 h
HepG2 [15] = test: as above; settings: 72 h
Vero E6 [16] = test: as above; settings: 72 h
[17] = tested on: A549-ACE2 infected with SARS-CoV-2; test: SARS-CoV-2 infection rate relative to DMSO; higher = more infection; settings: 24 h
[18] = tested on: A549-ACE2 infected with SARS-CoV-2; test: morphology score (similarity to uninfected cells); higher = more like uninfected cells; settings: 24 h
A549-ACE2 [19] = test: phospholipidosis EC50; higher = less potent phospholipidosis inducer
A549-ACE2 [20] = test: drug-induced phospholipidosis relative to tamoxifen; higher = more phospholipidosis

Cc1ccccc1-n1c(Cn2ncc3c(N)ncnc32)nc2cccc(C)c2c1=O [PIK-293]
Settings | drug sensitivity score | relative viability EC50 [µM]
Caco-2 [2] | 0 | –
Caco-2 [13] | – | > 10
Calu-3 [3] | 0 | –
Calu-3 [14] | – | > 10
HepG2 [4] | 0 | –
HepG2 [15] | – | > 10
U2OS [1] | 0 | –
U2OS [12] | – | > 10
Vero E6 [5] | 0 | –
Vero E6 [16] | – | > 10

Settings | SARS-CoV-2 infection rate [%] | cell count [%] | cell viability [%] | morphology score | phospholipidosis EC50 [µM]
A549-ACE2 [19], 24 h | – | – | – | – | 2.86
A549-ACE2 [19], 48 h | – | – | – | – | 3.88
Caco-2 [8], 1 nM | – | – | 101 | – | –
Caco-2 [8], 10 nM | – | – | 94.2 | – | –
Caco-2 [8], 100 nM | – | – | 91.1 | – | –
Caco-2 [8], 1000 nM | – | – | 95.8 | – | –
Caco-2 [8], 10000 nM | – | – | 89.9 | – | –
Calu-3 [9], 1 nM | – | – | 96.8 | – | –
Calu-3 [9], 10 nM | – | – | 90.5 | – | –
Calu-3 [9], 100 nM | – | – | 93 | – | –
Calu-3 [9], 1000 nM | – | – | 111 | – | –
Calu-3 [9], 10000 nM | – | – | 102 | – | –
HepG2 [10], 1 nM | – | – | 95.5 | – | –
HepG2 [10], 10 nM | – | – | 90 | – | –
HepG2 [10], 100 nM | – | – | 104 | – | –
HepG2 [10], 1000 nM | – | – | 95 | – | –
HepG2 [10], 10000 nM | – | – | 99.4 | – | –
U2OS [7], 1 nM | – | – | 91.4 | – | –
U2OS [7], 10 nM | – | – | 100 | – | –
U2OS [7], 100 nM | – | – | 93.6 | – | –
U2OS [7], 1000 nM | – | – | 100 | – | –
U2OS [7], 10000 nM | – | – | 95.5 | – | –
Vero E6 [11], 1 nM | – | – | 102 | – | –
Vero E6 [11], 10 nM | – | – | 99 | – | –
Vero E6 [11], 100 nM | – | – | 105 | – | –
Vero E6 [11], 1000 nM | – | – | 101 | – | –
Vero E6 [11], 10000 nM | – | – | 104 | – | –
[6], 0.3 µM | – | 84 | – | – | –
[6], 3 µM | – | 98 | – | – | –
[6], 10 µM | – | 65 | – | – | –
[17], 0.3 µM | 89 | – | – | – | –
[17], 3 µM | 27 | – | – | – | –
[17], 10 µM | 70 | – | – | – | –
[18], 0.3 µM | – | – | – | 0.21 | –
[18], 3 µM | – | – | – | 0.76 | –
[18], 10 µM | – | – | – | 0.02 | –

drug-induced phospholipidosis [%], A549-ACE2 [20]
Settings | 0.3 µM | 0.833333 µM | 3.33333 µM | 6.66667 µM | 10 µM
24 h | 2.65 | 16.4 | 52.5 | 87.2 | 81
48 h | 5.81 | 14 | 48.3 | 99.5 | –
72 h | 3.73 | 6.21 | – | – | –

c1cc(CN2CCCCC2)cc(OCCCNc2nc3ccccc3s2)c1 [zolantidine]
Settings | drug sensitivity score | relative viability EC50 [µM]
Caco-2 [2] | 0.2 | –
Caco-2 [13] | – | > 10
Calu-3 [3] | 0.4 | –
Calu-3 [14] | – | > 10
HepG2 [4] | 0 | –
HepG2 [15] | – | > 10
U2OS [1] | 0 | –
U2OS [12] | – | > 10
Vero E6 [5] | 0 | –
Vero E6 [16] | – | > 10

Settings | SARS-CoV-2 infection rate [%] | cell count [%] | cell viability [%] | morphology score | phospholipidosis EC50 [µM]
A549-ACE2 [19], 24 h | – | – | – | – | 7.87
A549-ACE2 [19], 48 h | – | – | – | – | 9.34
A549-ACE2 [19], 72 h | – | – | – | – | 12.4
Caco-2 [8], 1 nM | – | – | 104 | – | –
Caco-2 [8], 10 nM | – | – | 93.4 | – | –
Caco-2 [8], 100 nM | – | – | 99.7 | – | –
Caco-2 [8], 1000 nM | – | – | 96.6 | – | –
Caco-2 [8], 10000 nM | – | – | 86.4 | – | –
Calu-3 [9], 1 nM | – | – | 89.8 | – | –
Calu-3 [9], 10 nM | – | – | 88.3 | – | –
Calu-3 [9], 100 nM | – | – | 108 | – | –
Calu-3 [9], 1000 nM | – | – | 98.1 | – | –
Calu-3 [9], 10000 nM | – | – | 84.9 | – | –
HepG2 [10], 1 nM | – | – | 99.1 | – | –
HepG2 [10], 10 nM | – | – | 91.8 | – | –
HepG2 [10], 100 nM | – | – | 97.6 | – | –
HepG2 [10], 1000 nM | – | – | 102 | – | –
HepG2 [10], 10000 nM | – | – | 89.5 | – | –
U2OS [7], 1 nM | – | – | 101 | – | –
U2OS [7], 10 nM | – | – | 95.9 | – | –
U2OS [7], 100 nM | – | – | 104 | – | –
U2OS [7], 1000 nM | – | – | 97.6 | – | –
U2OS [7], 10000 nM | – | – | 94.6 | – | –
Vero E6 [11], 1 nM | – | – | 90.2 | – | –
Vero E6 [11], 10 nM | – | – | 103 | – | –
Vero E6 [11], 100 nM | – | – | 98.3 | – | –
Vero E6 [11], 1000 nM | – | – | 102 | – | –
Vero E6 [11], 10000 nM | – | – | 94.4 | – | –
[6], 0.3 µM | – | 101 | – | – | –
[6], 3 µM | – | 118 | – | – | –
[6], 10 µM | – | 119 | – | – | –
[6], 30 µM | – | 124 | – | – | –
[17], 0.3 µM | 98 | – | – | – | –
[17], 3 µM | 50 | – | – | – | –
[17], 10 µM | 20 | – | – | – | –
[17], 30 µM | 12 | – | – | – | –
[18], 0.3 µM | – | – | – | -0.12 | –
[18], 3 µM | – | – | – | 0.76 | –
[18], 10 µM | – | – | – | 0.9 | –
[18], 30 µM | – | – | – | 0.62 | –

drug-induced phospholipidosis [%], A549-ACE2 [20]
Settings | 0.3 µM | 0.833333 µM | 3.33333 µM | 6.66667 µM | 10 µM | 30 µM
24 h | 3.01 | 2.56 | 9.9 | 36.9 | 64.3 | 91.7
48 h | 3.2 | 2.85 | 4.98 | 28.7 | 56.2 | 97.1
72 h | 5.43 | 2.63 | 7.7 | 25.4 | 50.3 | 116

Cn1cc(-c2cnn3c(N)c(Br)c([C@@H]4CCCNC4)nc23)cn1
Settings | drug sensitivity score | relative viability EC50 [µM]
Caco-2 [2] | 0 | –
Caco-2 [13] | – | > 10
Calu-3 [3] | 0 | –
Calu-3 [14] | – | > 10
HepG2 [4] | 5.7 | –
U2OS [1] | 8.7 | –
U2OS [12] | – | 1.38
Vero E6 [5] | 0.9 | –
Vero E6 [16] | – | > 10

Settings | SARS-CoV-2 infection rate, [17] [%] | cell count, [6] [%] | cell viability, Caco-2 [8] [%] | cell viability, Calu-3 [9] [%] | cell viability, HepG2 [10] [%] | cell viability, U2OS [7] [%] | cell viability, Vero E6 [11] [%] | morphology score, [18]
1 nM | – | – | 92.5 | 99.2 | 98.8 | 98.3 | 102 | –
10 nM | – | – | 100 | 95.1 | 101 | 92 | 102 | –
100 nM | – | – | 93.4 | 97.6 | 88.7 | 100 | 98.2 | –
0.3 µM | 102 | 99 | – | – | – | – | – | -0.17
1000 nM | – | – | 97.7 | 93.3 | 75 | 73.4 | 95.7 | –
3 µM | 87 | 110 | – | – | – | – | – | 0.41
10 µM | 50 | 106 | – | – | – | – | – | 0.67
10000 nM | – | – | 86.2 | 100 | 52 | 13.7 | 82.1 | –
30 µM | 13 | 79 | – | – | – | – | – | 0.84

drug-induced phospholipidosis [%], A549-ACE2 [20]
Settings | 0.3 µM | 0.833333 µM | 3.33333 µM | 6.66667 µM | 10 µM | 30 µM
24 h | 0.22 | 3.23 | 6.07 | 18.9 | 19.9 | 52.2
48 h | 3.9 | 4.18 | 8.86 | 16.4 | 18.3 | 60.6
72 h | 6.85 | 4.55 | 10.4 | 11.1 | 15.4 | –

— the supplement of paper PMC13380429
